{
  "source": "ChEMBL document CHEMBL1122200",
  "about": "“Novel opiates and antagonists. 5. 7-Carbethoxy-N-(cycloalkylmethyl)-3-hydroxymorphinan-6-ones and -isomorphinan-6-ones” (1982)",
  "key": {"Rattus norvegicus": {"tested_on": "Rattus norvegicus", "assay": "Narcotic antagonist activity was measured by rat tail flick procedure after the drug was injected intraperitoneally", "assay_type": "functional"}, "Mus musculus": {"tested_on": "Mus musculus", "assay": "Analgesic activity by mouse writhing test after subcutaneous injection.", "assay_type": "functional"}, "[1]": {"settings": "Mus musculus, sc, read-out: ED50"}},
  "data": [
    {"molecule": "CCOC(=O)[C@@H]1CC2C3Cc4ccc(OC)cc4C2(CCN3CC2CCC2)CC1=O", "note": "(some centres not stated)", "values": [
      {"measurement": "AD50", "setting": "Rattus norvegicus", "result": ">3", "unit": "mg/kg"},
      {"measurement": "ED50", "setting": "Mus musculus; [1]", "result": "> 10", "unit": "mg/kg"}
    ]},
    {"molecule": "CC(C)(O)[C@@H]1CC2C3Cc4ccc(O)cc4C2(CCN3CC2CC2)C[C@@H]1O", "note": "(some centres not stated)", "values": [
      {"measurement": "AD50", "setting": "Rattus norvegicus", "result": ">10", "unit": "mg/kg"},
      {"measurement": "ED50", "setting": "Mus musculus; [1]", "result": 6.9, "unit": "mg/kg"}
    ]},
    {"molecule": "CCOC(=O)[C@H]1CC2C3Cc4ccc(OC)cc4C2(CCN3C)CC1=O", "note": "(some centres not stated)", "values": [
      {"measurement": "ED50", "setting": "Mus musculus; [1]", "result": "> 10", "unit": "mg/kg"}
    ]},
    {"molecule": "CCOC(=O)[C@H]1CC2C3Cc4ccc(OC)cc4C2(CCN3CC2CC2)CC1=O", "note": "(some centres not stated)", "values": [
      {"measurement": "AD50", "setting": "Rattus norvegicus", "result": ">10", "unit": "mg/kg"},
      {"measurement": "ED50", "setting": "Mus musculus; [1]", "result": "> 10", "unit": "mg/kg"}
    ]},
    {"molecule": "CCOC(=O)[C@@H]1CC2C3Cc4ccc(O)cc4C2(CCN3CC2CC2)CC1=O", "note": "(some centres not stated)", "values": [
      {"measurement": "ED50", "setting": "Mus musculus; [1]", "result": 4.9, "unit": "mg/kg"}
    ]},
    {"molecule": "CCOC(=O)[C@@H]1CC2C3Cc4ccc(O)cc4C2(CCN3CC2CCC2)CC1=O", "note": "(some centres not stated)", "values": [
      {"measurement": "AD50", "setting": "Rattus norvegicus", "result": ">10", "unit": "mg/kg"}
    ]},
    {"molecule": "CCOC(=O)[C@H]1CC2C3Cc4ccc(O)cc4C2(CCN3C)CC1=O", "note": "(some centres not stated)", "values": [
      {"measurement": "ED50", "setting": "Mus musculus; [1]", "result": 0.6, "unit": "mg/kg"}
    ]},
    {"molecule": "CN1CC[C@]23c4c5ccc(O)c4O[C@H]2[C@@H](O)C=C[C@H]3[C@H]1C5.CN1CC[C@]23c4c5ccc(O)c4O[C@H]2[C@@H](O)C=C[C@H]3[C@H]1C5.O=S(=O)(O)O", "values": [
      {"measurement": "ED50", "setting": "Mus musculus; [1]", "result": 0.8, "unit": "mg/kg"}
    ]},
    {"molecule": "CN1CCC23CC(=O)CC[C@H]2C1Cc1ccc(O)cc13", "note": "(some centres not stated)", "values": [
      {"measurement": "ED50", "setting": "Mus musculus; [1]", "result": 0.15, "unit": "mg/kg"}
    ]},
    {"molecule": "CN1CCC23CC(=O)CC[C@@H]2C1Cc1ccc(O)cc13", "note": "(some centres not stated)", "values": [
      {"measurement": "ED50", "setting": "Mus musculus; [1]", "result": 0.23, "unit": "mg/kg"}
    ]},
    {"molecule": "CCOC(=O)[C@@H]1CC2C3Cc4ccc(OC)cc4C2(CCN3CC2CC2)CC1=O", "note": "(some centres not stated)", "values": [
      {"measurement": "AD50", "setting": "Rattus norvegicus", "result": ">3", "unit": "mg/kg"},
      {"measurement": "ED50", "setting": "Mus musculus; [1]", "result": "> 10", "unit": "mg/kg"}
    ]},
    {"molecule": "CCOC(=O)[C@@H]1CC2C3Cc4ccc(O)cc4C2(CCN3C)CC1=O", "note": "(some centres not stated)", "values": [
      {"measurement": "ED50", "setting": "Mus musculus; [1]", "result": 0.72, "unit": "mg/kg"}
    ]},
    {"molecule": "CCOC(=O)[C@@H]1CC2C3Cc4ccc(OC)cc4C2(CCN3C)CC1=O", "note": "(some centres not stated)", "values": [
      {"measurement": "ED50", "setting": "Mus musculus; [1]", "result": 4.6, "unit": "mg/kg"}
    ]},
    {"molecule": "COc1ccc2c(c1)C13CCN(C)C(C2)[C@@H]1CCC(=O)C3", "note": "(some centres not stated)", "values": [
      {"measurement": "ED50", "setting": "Mus musculus; [1]", "result": 0.49, "unit": "mg/kg"}
    ]},
    {"molecule": "CC(C)(O)[C@H]1CC2C3Cc4ccc(O)cc4C2(CCN3CC2CC2)C[C@H]1O", "note": "(some centres not stated)", "values": [
      {"measurement": "AD50", "setting": "Rattus norvegicus", "result": ">10", "unit": "mg/kg"},
      {"measurement": "ED50", "setting": "Mus musculus; [1]", "result": "> 10", "unit": "mg/kg"}
    ]},
    {"molecule": "COc1ccc2c(c1)C13CCN(C)C(C2)[C@H]1CCC(=O)C3", "note": "(some centres not stated)", "values": [
      {"measurement": "ED50", "setting": "Mus musculus; [1]", "result": 1.58, "unit": "mg/kg"}
    ]},
    {"molecule": "O=C1CCC2C3Cc4ccc(O)cc4C2(CCN3CC2CCC2)C1", "note": "(cis isomer)", "values": [
      {"measurement": "AD50", "setting": "Rattus norvegicus", "result": ">10", "unit": "mg/kg"},
      {"measurement": "ED50", "setting": "Mus musculus; [1]", "result": 0.017, "unit": "mg/kg"}
    ]},
    {"molecule": "COc1ccc2c(c1)C13CCN(CC4CC4)C(C2)C1CCC(=O)C3", "note": "(stereo in doubt; 5Cc)", "values": [
      {"measurement": "AD50", "setting": "Rattus norvegicus", "result": ">3", "unit": "mg/kg"},
      {"measurement": "ED50", "setting": "Mus musculus", "result": 0.24, "unit": "mg/kg"}
    ]},
    {"molecule": "COc1ccc2c(c1)C13CCN(CC4CCC4)C(C2)C1CCC(=O)C3", "note": "(stereo in doubt; 5Cd)", "values": [
      {"measurement": "AD50", "setting": "Rattus norvegicus", "result": ">10", "unit": "mg/kg"},
      {"measurement": "ED50", "setting": "Mus musculus", "result": 0.22, "unit": "mg/kg"}
    ]},
    {"molecule": "O=C1CCC2C3Cc4ccc(O)cc4C2(CCN3CC2CC2)C1", "note": "(stereo in doubt; 9Ca)", "values": [
      {"measurement": "AD50", "setting": "Rattus norvegicus", "result": 2.3, "unit": "mg/kg"},
      {"measurement": "ED50", "setting": "Mus musculus", "result": 1.02, "unit": "mg/kg"}
    ]},
    {"molecule": "COc1ccc2c(c1)C13CCN(CC4CC4)C(C2)C1CCC(=O)C3", "note": "(trans isomer)", "values": [
      {"measurement": "AD50", "setting": "Rattus norvegicus", "result": 1.3, "unit": "mg/kg"},
      {"measurement": "ED50", "setting": "Mus musculus", "result": ">10", "unit": "mg/kg"}
    ]},
    {"molecule": "COc1ccc2c(c1)C13CCN(CC4CCC4)C(C2)C1CCC(=O)C3", "note": "(trans isomer)", "values": [
      {"measurement": "ED50", "setting": "Mus musculus", "result": 6.9, "unit": "mg/kg"}
    ]},
    {"molecule": "O=C1CCC2C3Cc4ccc(O)cc4C2(CCN3CC2CC2)C1", "note": "(trans isomer)", "values": [
      {"measurement": "AD50", "setting": "Rattus norvegicus", "result": 0.78, "unit": "mg/kg"},
      {"measurement": "ED50", "setting": "Mus musculus", "result": ">10", "unit": "mg/kg"}
    ]},
    {"molecule": "CC(C)=CCN1CC[C@]2(C)c3cc(O)ccc3C[C@H]1[C@H]2C", "note": "[(+)-PENTAZOCINE]", "values": [
      {"measurement": "AD50", "setting": "Rattus norvegicus", "result": 10.4, "unit": "mg/kg"},
      {"measurement": "ED50", "setting": "Mus musculus; [1]", "result": 3.7, "unit": "mg/kg"}
    ]},
    {"molecule": "C=CCN1CC[C@]23c4c5ccc(O)c4O[C@H]2[C@@H](O)C=C[C@H]3[C@H]1C5", "note": "[NALORPHINE]", "values": [
      {"measurement": "AD50", "setting": "Rattus norvegicus", "result": 0.86, "unit": "mg/kg"}
    ]}
  ]
}
